According to patent US10259847B2, “Beta-hairpin peptidomimetics” (POLYPHOR AG, priority 2014, dated 2019):
Read-outs that look alike come from different tables or passages of the source. Where a SMILES comes first, the peptide text is derived from it. Bridges are numbered along the chain shown (N, C = ends). [ ]: non-standard residue; d: D form. Tle = CC(C)(C)[C@H](N)C(=O)O; dDab = NCC[C@@H](N)C(=O)O; Dab = NCC[C@H](N)C(=O)O; Dap = NC[C@H](N)C(=O)O

Columns and labels:
Assay type in all cases: cell-based
[1] = tested on: Klebsiella pneumoniae ATCC 13883
Protocol: (§1) Stock solutions were kept at +4° C., light protected.
(§2) The selective antimicrobial activities of the peptides were determined in 96-well plates (Greiner, polystyrene) by the standard NCCLS broth microdilution method (National Committee for Clinical Laboratory Standards 1993. Methods for dilution antimicrobial susceptibility tests for bacteria that grow aerobically, 3rd ed. Approved standard M7-A6; National Committee for Clinical laboratory standards, Wayne, Pa.) with slight modifications. Inocula of the microorganisms were diluted into Mueller-Hinton II (MH, cation adjusted) broth and compared with a 0.5 McFarland standard to give appr. 10^6 colony forming units (CFU)/mL. Aliquots (90 μl) of inoculate were added to 10 μl of MH broth+P-80 (Polysorbate 80, 0.002% final concentration) containing the peptide in serial two-fold dilutions. The following microorganisms were used to determine antibiotic selectivity of the peptides: Escherichia coli ATCC 25922, Klebsiella pneumoniae ATCC 13883 and Acinetobacter baumannii DSM 30008.

[2] = tested on: Escherichia coli ATCC 25922
Protocol: as §1, §2

[3] = tested on: Acinetobacter baumannii DSM 30008
Protocol: as §1, §2

[4] = tested on: human red blood cells (hRBC); test: Hemolysis of human red blood cells
Protocol: as §1
Percent hemolysis was calculated as follows: (OD540peptide/OD540H2O)×100%.

[5] = Mueller-Hinton broth II, 0.002% P-80, 18-20 hours at 35° C.
[6] = 100 μg/mL, 20% hRBC (v/v), 1 h at 37° C.

SMILES	Klebsiella pneumoniae ATCC 13883 MIC [1, 5] [µg/mL]	Escherichia coli ATCC 25922 MIC [2, 5] [µg/mL]	Acinetobacter baumannii DSM 30008 MIC [3, 5] [µg/mL]	Hemolysis at 100 μg/mL [4, 6] [%]	Klebsiella pneumoniae ATCC 13883 MIC ([1]; ATCC 13883) [µg/mL]	Escherichia coli ATCC 25922 MIC ([2]; ATCC 25922) [µg/mL]	Acinetobacter baumannii DSM 30008 MIC ([3]; DSM 30008) [µg/mL]	Hemolysis at 100 μg/mL ([4]; red cells of human, 1 h, 100) [%]
CC(C)C[C@@H]1NC(=O)[C@H](CCN)NC(=O)[C@H]2CCCN2C(=O)[C@H](C(C)C)NC(=O)[C@@H]2CSSC[C@H](NC1=O)C(=O)N[C@@H](Cc1ccc(O)cc1)C(=O)N[C@@H](C)C(=O)N[C@@H](CCN)C(=O)N[C@@H](CCN)C(=O)N[C@@H](CCN)C(=O)N[C@@H](Cc1c[nH]c3ccccc13)C(=O)N[C@@H](C)C(=O)N[C@@H](C(C)C)C(=O)N2 [Example 1, cyclo(-Leu-Cys-Tyr-Ala-Dab-Dab-Dab-Trp-Ala-Val-Cys-Val-^DPro-Dab-)] (HELM PEPTIDE1{A.[Dab].[Dab].[Dab].W.A.V.C.V.[dP].[Dab].L.C.Y}$PEPTIDE1,PEPTIDE1,8:R3-13:R3|PEPTIDE1,PEPTIDE1,1:R1-14:R2$$$V2.0)	2	4	2.5	2	–	–	–	–
CC(C)C[C@@H]1NC(=O)[C@@H]2CCCN2C(=O)[C@H]2CCCN2C(=O)[C@H](CO)NC(=O)[C@@H]2CCCCNC(=O)C[C@H](NC1=O)C(=O)N[C@@H](Cc1ccc(O)cc1)C(=O)N[C@@H](CCN)C(=O)N[C@@H](CCCN)C(=O)N[C@@H](CCN)C(=O)N[C@@H](CCN)C(=O)N[C@@H](Cc1c[nH]c3ccccc13)C(=O)N[C@@H](CCN)C(=O)N[C@@H](C(C)(C)C)C(=O)N2 [Example 25, cyclo(-Leu-Asp-Tyr-Dab-Orn-Dab-Dab-Trp-Dab-tBuGly-Lys-Ser-^DPro-Pro-)] (HELM PEPTIDE1{L.D.Y.[Dab].[Orn].[Dab].[Dab].W.[Dab].[CC(C)(C)[C@H](N[*:1])C(=O)[*:2]].K.S.[dP].P}$PEPTIDE1,PEPTIDE1,2:R3-11:R3|PEPTIDE1,PEPTIDE1,1:R1-14:R2$$$V2.0)	–	–	–	–	1	1	2	0
CC(C)[C@@H]1NC(=O)[C@@H]2CCCN2C(=O)[C@H]2CCCN2C(=O)[C@H](CO)NC(=O)[C@H]2CSSC[C@@H](NC1=O)C(=O)N[C@@H](Cc1ccc(O)cc1)C(=O)N[C@@H](CCN)C(=O)N[C@@H](CN)C(=O)N[C@H](CCN)C(=O)N[C@@H](CCN)C(=O)N[C@@H](Cc1c[nH]c3ccccc13)C(=O)N[C@@H](CCN)C(=O)N[C@@H](C(C)(C)C)C(=O)N2 [Example 38, cyclo(-Val-^DCys-Tyr-Dab-Dap-^DDab-Dab-Trp-Dab-tBuGly-^DCys-Ser-^DPro-Pro-)] (cyclo(V[dC]Y[Dab][Dap][dDab][Dab]W[Dab][Tle][dC]S[dP]P); disulfide 2-11)	2	4	2	2	–	–	–	–
CC(C)[C@@H]1NC(=O)[C@@H]2CCCN2C(=O)[C@H]2CCCN2C(=O)[C@H]([C@@H](C)O)NC(=O)[C@@H]2CSSC[C@H](NC1=O)C(=O)N[C@@H](Cc1ccc(O)cc1)C(=O)N[C@@H](CCN)C(=O)N[C@@H](CN)C(=O)N[C@@H](CCN)C(=O)N[C@@H](CCN)C(=O)N[C@@H](Cc1c[nH]c3ccccc13)C(=O)N[C@@H](CCN)C(=O)N[C@@H](C(C)(C)C)C(=O)N2 [Example 8, cyclo(-Val-Cys-Tyr-Dab-Dap-Dab-Dab-Trp-Dab-tBuGly-Cys-Thr-^DPro-Pro-)] (HELM PEPTIDE1{V.C.Y.[Dab].[NC[C@H](N[*:1])C(=O)[*:2]].[Dab].[Dab].W.[Dab].[CC(C)(C)[C@H](N[*:1])C(=O)[*:2]].C.T.[dP].P}$PEPTIDE1,PEPTIDE1,2:R3-11:R3|PEPTIDE1,PEPTIDE1,1:R1-14:R2$$$V2.0)	0.5	1	2	1	–	–	–	–
CC(C)C[C@@H]1NC(=O)[C@@H]2CCCN2C(=O)[C@H]2CCCN2C(=O)[C@H](CO)NC(=O)[C@@H]2CCC(=O)NC[C@H](NC1=O)C(=O)N[C@@H](Cc1ccc(O)cc1)C(=O)N[C@@H](CCN)C(=O)N[C@@H](CCCN)C(=O)N[C@@H](CCN)C(=O)N[C@@H](CCN)C(=O)N[C@@H](Cc1c[nH]c3ccccc13)C(=O)N[C@@H](CCN)C(=O)N[C@@H](C(C)(C)C)C(=O)N2 [Example 26, cyclo(-Leu-Dap-Tyr-Dab-Orn-Dab-Dab-Trp-Dab-tBuGly-Glu-Ser-^DPro-Pro-)] (HELM PEPTIDE1{L.[O=C([C@H](CN[*:3])N[*:1])[*:2]].Y.[Dab].[Orn].[Dab].[Dab].W.[Dab].[CC(C)(C)[C@H](N[*:1])C(=O)[*:2]].E.S.[dP].P}$PEPTIDE1,PEPTIDE1,2:R3-11:R3|PEPTIDE1,PEPTIDE1,1:R1-14:R2$$$V2.0)	–	–	–	–	1	4	4	0
CC(C)C[C@@H]1NC(=O)[C@@H]2CCCN2C(=O)[C@H]2CCCN2C(=O)[C@H](CO)NC(=O)[C@@H]2CC(=O)NCCCC[C@H](NC1=O)C(=O)N[C@@H](Cc1ccc(O)cc1)C(=O)N[C@@H](CCN)C(=O)N[C@@H](CCCN)C(=O)N[C@@H](CCN)C(=O)N[C@@H](CCN)C(=O)N[C@@H](Cc1c[nH]c3ccccc13)C(=O)N[C@@H](CCN)C(=O)N[C@@H](C(C)(C)C)C(=O)N2 [Example 33, cyclo(-Leu-Lys-Tyr-Dab-Orn-Dab-Dab-Trp-Dab-tBuGly-Asp-Ser-^DPro-Pro-)] (HELM PEPTIDE1{L.K.Y.[Dab].[Orn].[Dab].[Dab].W.[Dab].[CC(C)(C)[C@H](N[*:1])C(=O)[*:2]].D.S.[dP].P}$PEPTIDE1,PEPTIDE1,2:R3-11:R3|PEPTIDE1,PEPTIDE1,1:R1-14:R2$$$V2.0)	–	–	–	–	4	1	1	1
CC(C)[C@@H]1NC(=O)[C@@H]2CCCN2C(=O)[C@H]2CCCN2C(=O)[C@H](CO)NC(=O)[C@@H]2CC(=O)NCC[C@H](NC1=O)C(=O)N[C@@H](Cc1ccc(O)cc1)C(=O)N[C@@H](CCN)C(=O)N[C@@H](CCN)C(=O)N[C@H](CCN)C(=O)N[C@@H](CCN)C(=O)N[C@@H](Cc1c[nH]c3ccccc13)C(=O)N[C@@H](CCN)C(=O)N[C@@H](C(C)(C)C)C(=O)N2 [Example 28] (HELM PEPTIDE1{V.[Dab].Y.[Dab].[Dab].[NCC[C@@H](N[*:1])C(=O)[*:2]].[Dab].W.[Dab].[CC(C)(C)[C@H](N[*:1])C(=O)[*:2]].D.S.[dP].P}$PEPTIDE1,PEPTIDE1,2:R3-11:R3|PEPTIDE1,PEPTIDE1,1:R1-14:R2$$$V2.0)	–	–	–	–	0.5	0.5	2	1
CC(C)C[C@@H]1NC(=O)[C@H](CCN)NC(=O)[C@H]2CCCN2C(=O)[C@H](C(C)C)NC(=O)[C@@H]2CSSC[C@H](NC1=O)C(=O)N[C@@H](Cc1ccc(O)cc1)C(=O)N[C@@H](C)C(=O)N[C@@H](CCN)C(=O)N[C@H](CCN)C(=O)N[C@@H](CCN)C(=O)N[C@@H](Cc1c[nH]c3ccccc13)C(=O)N[C@@H](C)C(=O)N[C@@H](C(C)C)C(=O)N2 [Example 2, cyclo(-Leu-Cys-Tyr-Ala-Dab-^DDab-Dab-Trp-Ala-Val-Cys-Val-^DPro-Dab-)] (HELM PEPTIDE1{A.[Dab].[NCC[C@@H](N[*:1])C(=O)[*:2]].[Dab].W.A.V.C.V.[dP].[Dab].L.C.Y}$PEPTIDE1,PEPTIDE1,8:R3-13:R3|PEPTIDE1,PEPTIDE1,1:R1-14:R2$$$V2.0)	–	–	–	–	2	2	2.5	3
CC(C)[C@@H]1NC(=O)[C@@H]2CCCN2C(=O)[C@H]2CCCN2C(=O)[C@H](Cc2c[nH]cn2)NC(=O)[C@@H]2CC(=O)NCC[C@H](NC1=O)C(=O)N[C@@H](Cc1ccc(O)cc1)C(=O)N[C@@H](CCN)C(=O)N[C@@H]([C@@H](C)O)C(=O)N[C@@H](CCN)C(=O)N[C@@H](CCN)C(=O)N[C@@H](Cc1c[nH]c3ccccc13)C(=O)N[C@@H](CCN)C(=O)N[C@@H](C(C)(C)C)C(=O)N2 [Example 17, cyclo(-Val-Dab-Tyr-Dab-Thr-Dab-Dab-Trp-Dab-tBuGly-Asp-His-^DPro-Pro-)] (HELM PEPTIDE1{V.[Dab].Y.[Dab].T.[Dab].[Dab].W.[Dab].[CC(C)(C)[C@H](N[*:1])C(=O)[*:2]].D.H.[dP].P}$PEPTIDE1,PEPTIDE1,2:R3-11:R3|PEPTIDE1,PEPTIDE1,1:R1-14:R2$$$V2.0)	–	–	–	–	2	2	4	1
CC(C)C[C@@H]1NC(=O)[C@@H]2CCCN2C(=O)[C@H]2CCCN2C(=O)[C@H](CO)NC(=O)[C@@H]2CC(=O)NCCCC[C@H](NC1=O)C(=O)N[C@@H](Cc1ccc(O)cc1)C(=O)N[C@@H](CCN)C(=O)N[C@@H](CCCN)C(=O)N[C@H](CCN)C(=O)N[C@@H](CCN)C(=O)N[C@@H](Cc1c[nH]c3ccccc13)C(=O)N[C@@H](CCN)C(=O)N[C@@H](C(C)(C)C)C(=O)N2 [Example 35, cyclo(-Leu-Lys-Tyr-Dab-Orn-^DDab-Dab-Trp-Dab-tBuGly-Asp-Ser-^DPro-Pro-)] (HELM PEPTIDE1{L.K.Y.[Dab].[Orn].[NCC[C@@H](N[*:1])C(=O)[*:2]].[Dab].W.[Dab].[CC(C)(C)[C@H](N[*:1])C(=O)[*:2]].D.S.[dP].P}$PEPTIDE1,PEPTIDE1,2:R3-11:R3|PEPTIDE1,PEPTIDE1,1:R1-14:R2$$$V2.0)	–	–	–	–	2	0.5	1	0
